Source: patent publication US12473304B2, “Heterocyclic PAD4 inhibitors” (BRISTOL-MYERS SQUIBB COMPANY, priority 2020, dated 2025)
pIC50: −log10 of the molar value.

Target: human PAD4 (hPAD4) (Homo sapiens (Human), UniProt Q9UM07)
Assay: RFMS Human PAD4 Functional Assay 1
Type: biochemical
Details: RFMS assay 1; 5 nM hPAD4, 250 μM BAEE substrate, 50 μM calcium, 37° C.
How it was run: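 Citrullination product read by RapidFire triple-quad MRM against a modified-citrulline internal standard, after TCA stop and 30 min phenyl glyoxal step at 37 °C. Reaction: 250 μM BAEE, 5 nM human PAD4, 90 min at 37 °C, pH 7.5 HEPES buffer with 50 μM calcium and 5 μM TPEN, following 30 min compound–enzyme preincubation (max 50 μM).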

Sequence of human PAD4 (hPAD4) (Q9UM07 whole entry): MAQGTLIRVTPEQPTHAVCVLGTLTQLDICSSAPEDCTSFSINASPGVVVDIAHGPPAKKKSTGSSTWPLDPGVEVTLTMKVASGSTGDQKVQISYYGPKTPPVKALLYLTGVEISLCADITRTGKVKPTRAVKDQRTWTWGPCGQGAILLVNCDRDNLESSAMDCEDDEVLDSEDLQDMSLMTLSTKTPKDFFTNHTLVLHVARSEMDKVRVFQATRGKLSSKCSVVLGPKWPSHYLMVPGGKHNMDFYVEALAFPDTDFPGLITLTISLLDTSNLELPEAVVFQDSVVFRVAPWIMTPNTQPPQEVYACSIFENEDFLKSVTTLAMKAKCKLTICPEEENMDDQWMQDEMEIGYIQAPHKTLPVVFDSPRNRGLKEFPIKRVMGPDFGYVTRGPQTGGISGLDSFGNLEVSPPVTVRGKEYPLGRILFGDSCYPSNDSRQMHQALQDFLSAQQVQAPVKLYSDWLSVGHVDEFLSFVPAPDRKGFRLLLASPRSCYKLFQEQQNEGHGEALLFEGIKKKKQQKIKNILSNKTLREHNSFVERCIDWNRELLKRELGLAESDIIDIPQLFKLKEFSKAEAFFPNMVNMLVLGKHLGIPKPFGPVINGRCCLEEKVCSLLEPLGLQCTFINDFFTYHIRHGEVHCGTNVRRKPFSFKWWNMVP

SMILES: CO[C@@H](C)C(=O)N1CC(c2cccc3cc(-c4nn5cc(C(=O)N6C[C@H](N)C[C@@H](F)C6)ccc5c4C)n(CC4CC4)c23)C1 [Example 542, (S)-1-(3-(2-(6-((3R,5R)-3-Amino-5-fluoropiperidine-1-carbonyl)-3-methylpyrazolo[1,5-a]pyridin-2-yl)-1-(cyclopropylmethyl)-1H-indol-7-yl)azetidin-1-yl)-2-methoxypropan-1-one]
- pIC50: 6.24

SMILES: CO[C@@H](C)C(=O)N1CC(c2cccc3cc(-c4nn5cc(C(=O)N6CCC[C@@H](N)C6)ccc5c4C)n(CC4CC4)c23)C1 [Example 543, (S)-1-(3-(2-(6-((R)-3-aminopiperidine-1-carbonyl)-3-methylpyrazolo[1,5-a]pyridin-2-yl)-1-(cyclopropylmethyl)-1H-indol-7-yl)azetidin-1-yl)-2-methoxypropan-1-one]
- pIC50: 6.20

SMILES: COCC(=O)N1CC(c2cccc3cc(-c4nn5cc(C(=O)N6CCC[C@@H](N)C6)ccc5c4C)n(CC4CC4)c23)C1 [Example 546, (R)-1-(3-(2-(6-(3-Aminopiperidine-1-carbonyl)-3-methylpyrazolo[1,5-a]pyridin-2-yl)-1-(cyclopropylmethyl)-1H-indol-7-yl)azetidin-1-yl)-2-methoxyethan-1-one]
- pIC50: 6.25

SMILES: COCC(=O)N1CC(c2cccc3cc(-c4nn5cc(C(=O)N6C[C@H](N)C[C@@H](F)C6)ccc5c4C)n(CC4CC4)c23)C1 [Example 547, 1-(3-(2-(6-((3R,5R)-3-Amino-5-fluoropiperidine-1-carbonyl)-3-methylpyrazolo[1,5-a]pyridin-2-yl)-1-(cyclopropylmethyl)-1H-indol-7-yl)azetidin-1-yl)-2-methoxyethan-1-one]
- pIC50: 6.31

SMILES: CC(=O)N1CC(c2cccc3cc(-c4nn5cc(C(=O)N6C[C@H](N)C[C@@H](F)C6)ccc5c4C)n(CC4CC4)c23)C1 [Example 548, 1-(3-(2-(6-((3R,5R)-3-Amino-5-fluoropiperidine-1-carbonyl)-3-methylpyrazolo[1,5-a]pyridin-2-yl)-1-(cyclopropylmethyl)-1H-indol-7-yl)azetidin-1-yl)ethan-1-one]
- pIC50: 6.77

SMILES: CC(=O)N1CC(c2cccc3cc(-c4nn5cc(C(=O)N6CC7CCC6[C@@H]7N)ccc5c4C)n(CC4CC4)c23)C1 (stereo partly drawn) [Example 549, 1-(3-(2-(6-((7R)-7-Amino-2-azabicyclo[2.2.1]heptane-2-carbonyl)-3-methylpyrazolo[1,5-a]pyridin-2-yl)-1-(cyclopropylmethyl)-1H-indol-7-yl)azetidin-1-yl)ethan-1-one]
- pIC50: 8.00

SMILES: COc1cc(C(=O)N2C[C@H](N)C[C@@H](F)C2)cn2nc(-c3cc4cccc(OC[C@H]5CCC(=O)N5)c4n3CC3CC3)c(C)c12 [Example 550, (R)-5-(((2-(6-((3R,5R)-3-amino-5-fluoropiperidine-1-carbonyl)-4-methoxy-3-methylpyrazolo[1,5-a]pyridin-2-yl)-1-(cyclopropylmethyl)-1H-indol-7-yl)oxy)methyl)pyrrolidin-2-one]
- pIC50: 7.30

SMILES: COc1cc(C(=O)N2CCC[C@@H](N)C2)cn2nc(-c3cc4cccc(OCCn5cncn5)c4n3CC3CC3)c(C)c12 [Example 555, (R)-(2-(7-(2-(1H-1,2,4-Triazol-1-yl)ethoxy)-1-(cyclopropylmethyl)-1H-indol-2-yl)-4-methoxy-3-methylpyrazolo[1,5-a]pyridin-6-yl)(3-aminopiperidin-1-yl)methanone]
- pIC50: 7.52

SMILES: COc1cc(C(=O)N2C[C@H](N)C[C@@H](F)C2)cn2nc(-c3cc4cccc(OCCn5cncn5)c4n3CC3CC3)c(C)c12 [Example 556, (2-(7-(2-(1H-1,2,4-Triazol-1-yl)ethoxy)-1-(cyclopropylmethyl)-1H-indol-2-yl)-4-methoxy-3-methylpyrazolo[1,5-a]pyridin-6-yl)((3R,5R)-3-amino-5-fluoropiperidin-1-yl)methanone]
- pIC50: 7.70

SMILES: COc1cc(C(=O)N2C[C@H](N)C[C@@H](F)C2)cn2nc(-c3cc4cccc(OCCn5cc(N)cn5)c4n3CC3CC3)c(C)c12 [Example 557, (2-(7-(2-(4-Amino-1H-pyrazol-1-yl)ethoxy)-1-(cyclopropylmethyl)-1H-indol-2-yl)-4-methoxy-3-methylpyrazolo[1,5-a]pyridin-6-yl)((3R,5R)-3-amino-5-fluoropiperidin-1-yl)methanone]
- pIC50: 8.00

SMILES: COc1cc(C(=O)N2CCC[C@@H](N)C2)cn2nc(-c3cc4cccc(OCCn5cc(N)cn5)c4n3CC3CC3)c(C)c12 [Example 558, (R)-(2-(7-(2-(4-Amino-1H-pyrazol-1-yl)ethoxy)-1-(cyclopropylmethyl)-1H-indol-2-yl)-4-methoxy-3-methylpyrazolo[1,5-a]pyridin-6-yl)(3-aminopiperidin-1-yl)methanone]
- pIC50: 7.00

SMILES: COc1cc(C(=O)N2CCC[C@@H](N)C2)cn2nc(-c3cc4cccc(OC[C@@H]5CCC(=O)N5)c4n3CC3CC3)c(C)c12 [Example 559, (S)-5-(((2-(6-((R)-3-Aminopiperidine-1-carbonyl)-4-methoxy-3-methylpyrazolo[1,5-a]pyridin-2-yl)-1-(cyclopropylmethyl)-1H-indol-7-yl)oxy)methyl)pyrrolidin-2-one]
- pIC50: 7.10

SMILES: COc1cc(C(=O)N2C[C@H](N)C[C@@H](F)C2)cn2nc(-c3cc4cccc(OC[C@@H]5CCC(=O)N5)c4n3CC3CC3)c(C)c12 [Example 560, (S)-5-(((2-(6-((3R,5R)-3-Amino-5-fluoropiperidine-1-carbonyl)-4-methoxy-3-methylpyrazolo[1,5-a]pyridin-2-yl)-1-(cyclopropylmethyl)-1H-indol-7-yl)oxy)methyl)pyrrolidin-2-one]
- pIC50: 6.80

SMILES: COc1cc(C(=O)N2CCC[C@@H](N)C2)cn2nc(-c3cc4cccc(OC[C@H]5CCC(=O)N5)c4n3CC3CC3)c(C)c12 [Example 561, (R)-5-(((2-(6-((R)-3-Aminopiperidine-1-carbonyl)-4-methoxy-3-methylpyrazolo[1,5-a]pyridin-2-yl)-1-(cyclopropylmethyl)-1H-indol-7-yl)oxy)methyl)pyrrolidin-2-one]
- pIC50: 6.19

SMILES: Cc1c(-c2cc3cccc(OC[C@@H]4CCC(=O)N4)c3n2CC2CC2)nn2cc(C(=O)N3C[C@H](N)C[C@@H](F)C3)cc(F)c12 [Example 568, (S)-5-(((2-(6-((3R,5R)-3-Amino-5-fluoropiperidine-1-carbonyl)-4-fluoro-3-methylpyrazolo[1,5-a]pyridin-2-yl)-1-(cyclopropylmethyl)-1H-indol-7-yl)oxy)methyl)pyrrolidin-2-one]
- pIC50: 7.22

SMILES: Cc1c(-c2cc3cccc(OC[C@@H]4CCC(=O)N4)c3n2CC2CC2)nn2cc(C(=O)N3CCC[C@@H](N)C3)cc(F)c12 [Example 569, (S)-5-(((2-(6-((R)-3-Aminopiperidine-1-carbonyl)-4-fluoro-3-methylpyrazolo[1,5-a]pyridin-2-yl)-1-(cyclopropylmethyl)-1H-indol-7-yl)oxy)methyl)pyrrolidin-2-one]
- pIC50: 7.70

SMILES: Cc1c(-c2cc3cccc(OC[C@H]4CCC(=O)N4)c3n2CC2CC2)nn2cc(C(=O)N3CCC[C@@H](N)C3)cc(F)c12 [Example 570, (R)-5-(((2-(6-((R)-3-Aminopiperidine-1-carbonyl)-4-fluoro-3-methylpyrazolo[1,5-a]pyridin-2-yl)-1-(cyclopropylmethyl)-1H-indol-7-yl)oxy)methyl)pyrrolidin-2-one]
- pIC50: 6.74

SMILES: Cc1c(-c2cc3cccc(OCCn4ccnc4)c3n2CC2CC2)nn2cc(C(=O)N3C[C@H](N)C[C@@H](F)C3)ccc12 [Example 574, (2-(7-(2-(1H-Imidazol-1-yl)ethoxy)-1-(cyclopropylmethyl)-1H-indol-2-yl)-3-methylpyrazolo[1,5-a]pyridin-6-yl)((3R,5R)-3-amino-5-fluoropiperidin-1-yl)methanone]
- pIC50: 7.70

SMILES: Cc1c(-c2cc3cccc(OCCn4ccnc4)c3n2CC2CC2)nn2cc(C(=O)N3CCC[C@@H](N)C3)ccc12 [Example 575, (R)-(2-(7-(2-(1H-lmidazol-1-yl)ethoxy)-1-(cyclopropylmethyl)-1H-indol-2-yl)-3-methylpyrazolo[1,5-a]pyridin-6-yl)(3-aminopiperidin-1-yl)methanone]
- pIC50: 7.22

SMILES: Cc1c(-c2cc3cccc(OCCn4cncn4)c3n2CC2CC2)nn2cc(C(=O)N3CCC[C@@H](N)C3)ccc12 [Example 580, (R)-(2-(7-(2-(1H-1,2,4-Triazol-1-yl)ethoxy)-1-(cyclopropylmethyl)-1H-indol-2-yl)-3-methylpyrazolo[1,5-a]pyridin-6-yl)(3-aminopiperidin-1-yl)methanone]
- pIC50: 7.22

SMILES: Cc1c(-c2cc3cccc(OCCn4cncn4)c3n2CC2CC2)nn2cc(C(=O)N3C[C@H](N)C[C@@H](F)C3)ccc12 [Example 581, (2-(7-(2-(1H-1,2,4-Triazol-1-yl)ethoxy)-1-(cyclopropylmethyl)-1H-indol-2-yl)-3-methylpyrazolo[1,5-a]pyridin-6-yl)((3R, 5R)-3-amino-5-fluoropiperidin-1-yl)methanone]
- pIC50: 7.52

SMILES: Cc1c(-c2cc3cccc(OCCn4cc(N)cn4)c3n2CC2CC2)nn2cc(C(=O)N3CCC[C@@H](N)C3)ccc12 [Example 582, (R)-(2-(7-(2-(4-Amino-1H-pyrazol-1-yl)ethoxy)-1-(cyclopropylmethyl)-1H-indol-2-yl)-3-methylpyrazolo[1,5-a]pyridin-6-yl)(3-aminopiperidin-1-yl)methanone]
- pIC50: 6.52

SMILES: Cc1c(-c2cc3cccc(OCCn4cc(N)cn4)c3n2CC2CC2)nn2cc(C(=O)N3C[C@H](N)C[C@@H](F)C3)ccc12 [Example 583, (2-(7-(2-(4-Amino-1H-pyrazol-1-yl)ethoxy)-1-(cyclopropylmethyl)-1H-indol-2-yl)-3-methylpyrazolo[1,5-a]pyridin-6-yl)((3R,5R)-3-amino-5-fluoropiperidin-1-yl)methanone]
- pIC50: 5.79

SMILES: Cc1c(-c2cc3cccc(OC[C@@H]4CCC(=O)N4)c3n2CC2CC2)nn2cc(C(=O)N3CCC[C@@H](N)C3)ccc12 [Example 584, (S)-5-(((2-(6-((R)-3-Aminopiperidine-1-carbonyl)-3-methylpyrazolo[1,5-a]pyridin-2-yl)-1-(cyclopropylmethyl)-1H-indol-7-yl)oxy)methyl)pyrrolidin-2-one]
- pIC50: 7.30
